From the Deep4Chem optical property database come the findings set out here.

This data set can be described thus: photoluminescence quantum yield (fraction); solvent given as SMILES.

Structures are written as SMILES.

As for `COC(=O)C(Cc1ccc2oc(-c3ccc4c(c3)c3ccccc3n4-c3ccccc3)nc2c1)NC(=O)OC(C)(C)C` (stereo not drawn), the photoluminescence quantum yield reads like this: (in C1CCCCC1) 0.76; (in C1CCOC1) 0.84; (in C1COCCO1) 1; (in CC1CCCO1) 0.93; (in CC1COC(=O)O1) 1; (in CC#N) 0.99. For the same compound, the photoluminescence quantum yield by setting is: (in CC(C)=O) 0.63; (in CC(C)CC(C)(C)C) 0.86; (in CC(C)CO) 1; (in CC(C)O) 1; (in CC(C)OC(C)C) 0.55; (in CC(O)CO) 1. Moreover, the photoluminescence quantum yield amounted to 0.59 (in CCC(C)CC); 0.59 (in CCCCC); 0.58 (in CCCCCC); 0.72 (in CCCCCCCCC); 0.75 (in CCCCCCCCCC); 1 (in CCCCCCCO). Moreover, the photoluminescence quantum yield by setting is: (in CCCCCCO) 0.94; (in CCCCCO) 1; (in CCCCO) 1; (in CCO) 1; (in CCOC(C)=O) 0.96; (in CCOCC) 0.68. The photoluminescence quantum yield is 1 (in CN(C)C=O); 0.99 (in CO); 0.7 (in COCCOC); 0.88 (in CS(C)=O); 0.78 (in Cc1ccccc1); 0.92 (in Cc1ccccc1C). Also, the photoluminescence quantum yield reads like this: (in ClC(Cl)Cl) 0.93; (in ClCCl) 0.94; (in NC=O) 0.82; (in OC1CCCCC1) 0.95; (in OCCO) 1; (in c1ccccc1) 0.97.

Turning to `CN(C)c1ccc2c(c1)-c1ccccc1C2=O`, the photoluminescence quantum yield amounted to 0.14 (in C1CCCCC1), 0.083 (in CC#N), 0.0081 (in CCO) and 0.23 (in c1ccccc1).

In turn, `COc1ccc(-c2cc(-c3ccc(C(F)(F)F)cc3)nn2C)cc1` had a photoluminescence quantum yield (in ClCCl) of 0.2.

`CC(C)(C)c1ccc(-c2c3cccc4c(-c5ccccc5)cc5c(-c6ccc(C(C)(C)C)cc6)c6cccc7c(-c8ccccc8)cc2c(c76)c5c43)cc1`: the photoluminescence quantum yield (in ClCCl) is 0.26.

Consider `CCN(CC)c1ccc2cc(C#N)c(=O)oc2c1`, for which, for the setting “in ClCCl”, the photoluminescence quantum yield is 0.82.

In turn, `C1=C2c3cc4ccccc4cc3C3=[N+]2[B-]2(Oc4ccccc43)Oc3ccccc3-c3c4cc5ccccc5cc4c1n32` (stereo not drawn) had a photoluminescence quantum yield (in C1CCOC1) of 0.013.

`c1cc2c3c(c1)-c1cccc4cccc(c14)B3c1cccc3cccc-2c13` returned a photoluminescence quantum yield (in Cc1ccccc1) of 0.9.

Turning to `CCCCCCCCCCCCN1C(=O)c2c(c3ccc4cc(-c5ccc(Cl)cc5)c(OC)cc4c3c3c2ccc2cc(-c4ccc(Cl)cc4)c(OC)cc23)C1=O`, the photoluminescence quantum yield (in ClCCl) came to 0.144.

As to `Cc1cc(C)c([B-]2(c3c(C)cc(C)cc3C)[O+]=P(c3ccccc3)(c3ccccc3)c3cc(C#Cc4ccccc4)sc3-c3sc(C#Cc4ccccc4)cc32)c(C)c1`, under “in C1CCOC1”, the photoluminescence quantum yield is 0.063.

Under “in ClCCl”, `CCOC(=O)C1=C(C(=O)OCC)C2(c3ccccc3-c3ccccc32)[C@@H](c2ccccc2)C=C2c3cc(OC)c(OC)cc3CCN21` yielded a photoluminescence quantum yield of 0.00154.

As for `Oc1ccc(C2=[N+]3C(=C(c4ccccc4)c4cccn4[B-]3(F)F)C=C2)cc1`, the photoluminescence quantum yield (in ClC(Cl)Cl) came out at 0.06.

The compound `CCCCCCCCCCCCn1cccc1/C=C/c1ccc(OCCCC)c2c(/C=C/c3cccn3CCCCCCCCCCCC)ccc(OCCCC)c12` displayed a photoluminescence quantum yield (in Cc1ccccc1) of 0.35.

In turn, `Cc1ccc(-c2ccc(/C=C/c3ccc(Cl)cc3)cn2)nc1` showed a photoluminescence quantum yield (in CC#N) of 0.76.

As to `Oc1ccc2ccccc2c1/C=N/CC/N=C/c1c(O)ccc2ccccc12`, under “in CC#N”, the photoluminescence quantum yield was determined as 0.12.

Turning to `CCCC1(CCC)c2cc(-c3ccc4c(c3)C(CCC)(CCC)c3cc(-c5ccc6c(c5)C(CCC)(CCC)c5cc(C(C)(C)CC)ccc5-6)ccc3-4)ccc2-c2ccc(-c3ccc4c(c3)C(CCC)(CCC)c3cc(C(C)(C)CC)ccc3-4)cc21`, for the setting “in C1CCCCC1”, the photoluminescence quantum yield was 0.98.

In the case of `CC1(C)C(/C=C/C=C/c2cc3ccc(O)cc3oc2=O)=[N+](CCCS(=O)(=O)[O-])c2ccccc21`, the photoluminescence quantum yield reads like this: (in CS(C)=O) 0.013; (in O) 0.013.

In the case of `CC1(C)c2ccccc2N(c2ccc(-c3ccc(C#N)nc3)cc2)c2ccccc21`, the photoluminescence quantum yield is, setting by setting: (in Cc1ccccc1) 0.345; (in N#Cc1ccc2c(c1)c1ccccc1n2-c1cccc(-n2c3ccccc3c3ccccc32)c1) 0.916.

For `CCN(CC)c1ccc(/C=C/C2=[O+][B-](F)(F)Oc3c2c(=O)oc2cc(N(CC)CC)ccc32)cc1`, the photoluminescence quantum yield was determined as 0.46 (in C1CCCCC1); 0.72 (in C1COCCO1); 0.011 (in CC#N); 0.021 (in CC(C)=O); 0.044 (in CCO); 0.16 (in CCOC(C)=O). The photoluminescence quantum yield runs as follows: (in CO) 0.016; (in CS(C)=O) 0.035; (in Cc1ccccc1) 0.93; (in ClC(Cl)Cl) 0.75; (in ClCCl) 0.16; (in OCC(O)CO) 0.36. Besides, the photoluminescence quantum yield (in OCCO) was 0.072.

In the case of `Cc1nc2cc3c4c(cccc4c2o1)C(=O)OC3=O`, the photoluminescence quantum yield (in CCO) came out at 0.1.

In the case of `C(/C=C/Nc1cccc2ccccc12)=[NH+]c1cccc2ccccc12`, the photoluminescence quantum yield (in CS(C)=O) came out at 0.01.

Consider `C(=C\N1CCCC1)/c1nc2ccccc2nc1-c1ccccc1`, for which the photoluminescence quantum yield was determined as 0.186 (in C1CCCCC1); 0.445 (in C1CCOC1); 0.199 (in CC#N); 0.284 (in CC(C)=O); 0.023 (in CCO); 0.006 (in CO). Besides, the photoluminescence quantum yield runs as follows: (in CS(C)=O) 0.112; (in Cc1ccccc1) 0.49; (in ClCCl) 0.598.

As for `CCN(CC)c1ccc2c(-c3ccccc3C(=O)O)c3c([o+]c2c1)/C(=C/Nc1ccccc1)CCC3`, the photoluminescence quantum yield by setting is: (in CCO) 0.35; (in ClC(Cl)Cl) 0.35; (in ClCCl) 0.6.

On to `Cc1cc(=O)oc2c3c4c(cc12)CCCN4CCC3`, for which the photoluminescence quantum yield reads like this: (in CCC#N) 0.9; (in CCCCl) 0.8; (in CCO) 0.8; (in OC(C(F)(F)F)C(F)(F)F) 0.86; (in OCC(F)(F)F) 0.84.

On to `CCC1(CC)c2cc(/C=C/c3cc(C#N)c(/C=C/c4ccc5c(c4)C(CC)(CC)c4cc(N6c7ccccc7Sc7ccccc76)ccc4-5)cc3C#N)ccc2-c2ccc(N3c4ccccc4Sc4ccccc43)cc21`, for which the photoluminescence quantum yield came to 0.01 (in C1CCOC1), 0.11 (in CCCCCC), 0.06 (in Cc1ccccc1) and 0.01 (in ClCCl).

Regarding `COC(=O)/C=C/c1ccc2ccc3cccc4ccc1c2c34`, the photoluminescence quantum yield is, setting by setting: (in C1CCOC1) 0.73; (in C1COCCO1) 0.55; (in CC#N) 0.46; (in CC(C)=O) 0.51; (in CCCCCC) 0.46; (in CCOC(C)=O) 0.57. Moreover, the photoluminescence quantum yield (in CO) is 0.26 and the photoluminescence quantum yield (in Cc1ccccc1) worked out at 0.47.

Consider `COc1cc2c3c4c(c5ccc(C(C)(C)C)cc5c5cc(C(C)(C)C)cc(c2c(OC)c1OC)c45)=[N+]1C3=Nc2c3c4cc(OC)c(OC)c(OC)c4c4cc(C(C)(C)C)cc5c6cc(C(C)(C)C)ccc6c(c3c54)n2[B-]1(F)F`, for which, for the setting “in Cc1ccccc1”, the photoluminescence quantum yield came to 0.07.

As to `c1ccc(-c2nc(-c3ccccc3)nc(-c3ccc(N4c5ccccc5C5(c6ccccc64)c4ccccc4N(c4ccc(-c6nc(-c7ccccc7)nc(-c7ccccc7)n6)cc4)c4ccccc45)cc3)n2)cc1`, the photoluminescence quantum yield (in O=P(c1ccccc1)(c1ccccc1)c1ccccc1Oc1ccccc1P(=O)(c1ccccc1)c1ccccc1) came to 0.79.

`CSc1ccc(C#Cc2ccc(C#Cc3ccc(C#Cc4ccccc4C#N)cc3C#N)cc2C#N)cc1`: the photoluminescence quantum yield (in ClC(Cl)Cl) worked out at 0.972.

In turn, `CN(C)c1ccc(/C=C/c2cnc(C#Cc3ccc(C#N)cc3)o2)cc1` registered a photoluminescence quantum yield (in ClCCl) of 0.24.

As for `CCN1c2ccc(/C=N/Nc3ccccn3)cc2Sc2cc(-c3ccccc3)ccc21`, the photoluminescence quantum yield was found to be 0.26 (in C1CCOC1), 0.37 (in CS(C)=O), 0.17 (in Cc1ccccc1) and 0.27 (in ClCCl).

On to `F[B-]1(F)OC(c2ccc3ccccc3c2)=CC(c2ccc3ccccc3c2)=[O+]1`, for which the photoluminescence quantum yield is, setting by setting: (in CC#N) 0.7; (in ClC(Cl)(Cl)Cl) 0.9.

Take `CCn1c2ccc(-c3cccs3)cc2c2cc(-c3cccs3)ccc21`: the photoluminescence quantum yield (in ClCCl) stood at 0.047.

The compound `C[Si]1(C)c2cc(C#Cc3ccccc3)ccc2C=Cc2ccc(C#Cc3ccccc3)cc21` gave a photoluminescence quantum yield (in ClCCl) of 0.77.

For `COCCOCCOCCOCC(COCCOCCOCCOC)Oc1cc(/C=C/c2ccc(/C=C(\C#N)c3ccccc3)cc2)c(OC(COCCOCCOCCOC)COCCOCCOCCOC)cc1/C=C/c1ccc(/C=C(\C#N)c2ccccc2)cc1`, the photoluminescence quantum yield (in ClCCl) was determined as 0.72.

On to `COc1cc(/C=C/c2nc3ccccc3s2)c(OC)cc1/C=C/c1ccncc1`, for which the photoluminescence quantum yield by setting is: (in C1CCOC1) 0.75; (in CC#N) 0.5; (in CN(C)C=O) 0.67; (in Cc1ccccc1) 0.86.
